Our source for the mutagenic call values is PubChem BioAssay AID1259407 (Chemical Carcinogenesis Research Information System (CCRIS), 2018).

This data set has as its system CCRIS mutagenicity, Ames/micronucleus/aberration tests. In words: CCRIS mutagenicity studies.

Calls of active or inactive are those of the source. How the calls were made is not given here.

Take `N=C(N)N`: the mutagenic call was “inactive; negative” (Test System: AMES SALMONELLA TYPHIMURIUM, Strain/Indicator: TA98, Metabolic Activation: NONE, Method: PREINCUBATION); “inactive; negative” (Test System: AMES SALMONELLA TYPHIMURIUM, Strain/Indicator: TA98, Metabolic Activation: RAT LIVER S-9, PHENOBARBITAL AND BETA-NAPHTHOFLAVONE, Method: PREINCUBATION); “inactive; negative” (Test System: AMES SALMONELLA TYPHIMURIUM, Strain/Indicator: TA100, Metabolic Activation: NONE, Method: PREINCUBATION); “inactive; negative” (Test System: AMES SALMONELLA TYPHIMURIUM, Strain/Indicator: TA100, Metabolic Activation: RAT LIVER S-9, PHENOBARBITAL AND BETA-NAPHTHOFLAVONE, Method: PREINCUBATION); “inactive; negative” (Test System: AMES SALMONELLA TYPHIMURIUM, Strain/Indicator: TA1535, Metabolic Activation: NONE, Method: PREINCUBATION); “inactive; negative” (Test System: AMES SALMONELLA TYPHIMURIUM, Strain/Indicator: TA1535, Metabolic Activation: RAT LIVER S-9, PHENOBARBITAL AND BETA-NAPHTHOFLAVONE, Method: PREINCUBATION). The mutagenic call by setting is: (Test System: AMES SALMONELLA TYPHIMURIUM, Strain/Indicator: TA1537, Metabolic Activation: NONE, Method: PREINCUBATION) “inactive; negative”; (Test System: AMES SALMONELLA TYPHIMURIUM, Strain/Indicator: TA1537, Metabolic Activation: RAT LIVER S-9, PHENOBARBITAL AND BETA-NAPHTHOFLAVONE, Method: PREINCUBATION) “inactive; negative”; (Test System: AMES SALMONELLA TYPHIMURIUM, Strain/Indicator: TA1538, Metabolic Activation: NONE, Method: PREINCUBATION) “inactive; negative”; (Test System: AMES SALMONELLA TYPHIMURIUM, Strain/Indicator: TA1538, Metabolic Activation: RAT LIVER S-9, PHENOBARBITAL AND BETA-NAPHTHOFLAVONE, Method: PREINCUBATION) “inactive; negative”; (Test System: E.COLI, Strain/Indicator: WP2UVRA, Metabolic Activation: NONE, Method: PREINCUBATION) “inactive; negative”; (Test System: E.COLI, Strain/Indicator: WP2UVRA, Metabolic Activation: RAT LIVER S-9, PHENOBARBITAL AND BETA-NAPHTHOFLAVONE, Method: PREINCUBATION) “inactive; negative”.

As to `c1ccc2c(c1)Cc1ccccc1-2`, the mutagenic call is “inactive; negative” (End Point: IN VITRO CHROMOSOMAL ABERRATIONS, Test System: CHINESE HAMSTER LUNG (CHL) CELLS, Metabolic Activation: NONE); “active; positive” (End Point: IN VITRO CHROMOSOMAL ABERRATIONS, Test System: CHINESE HAMSTER LUNG (CHL) CELLS, Metabolic Activation: RAT, LIVER, S-9, KC-400); “inactive; negative” (End Point: IN VITRO MICRONUCLEUS, Test System: CHO CELLS, Metabolic Activation: RAT, LIVER, S-9, AROCLOR 1254); “inactive; negative” (Test System: AMES SALMONELLA TYPHIMURIUM, Strain/Indicator: TA97, Metabolic Activation: NONE, Method: STANDARD PLATE); “inactive; negative” (Test System: AMES SALMONELLA TYPHIMURIUM, Strain/Indicator: TA97, Metabolic Activation: RAT, LIVER, S-9, PCB, Method: STANDARD PLATE); “inactive; negative” (Test System: AMES SALMONELLA TYPHIMURIUM, Strain/Indicator: TA98, Metabolic Activation: NONE, Method: STANDARD PLATE). Also, the mutagenic call was “inactive; negative” (Test System: AMES SALMONELLA TYPHIMURIUM, Strain/Indicator: TA98, Metabolic Activation: RAT, LIVER, S-9, PCB, Method: STANDARD PLATE); “inactive; negative” (Test System: AMES SALMONELLA TYPHIMURIUM, Strain/Indicator: TA100, Metabolic Activation: NONE, Method: STANDARD PLATE); “inactive; negative” (Test System: AMES SALMONELLA TYPHIMURIUM, Strain/Indicator: TA100, Metabolic Activation: RAT, LIVER, S-9, PCB, Method: STANDARD PLATE); “active; positive” (Test System: MOUSE LYMPHOMA, Strain/Indicator: L5178Y (TK+/TK-), Metabolic Activation: NONE, Method: SUSPENSION/PLATE); “active; positive” (Test System: MOUSE LYMPHOMA, Strain/Indicator: L5178Y (TK+/TK-), Metabolic Activation: RAT, LIVER, S-9, AROCLOR 1254, Method: SUSPENSION/PLATE); “inactive; negative” (Test System: UDS RAT HEPATOCYTES, Strain/Indicator: BROMODEOXYURIDINE INCORP, Metabolic Activation: NONE, Method: FLOW CYTOMETRIC ANALYSIS).
